Assay [1] has as its system OR2A4/7. Particulars: screening approach, Tsai et al. 2017; cited from earlier work.
Assay [2] concerns microdissected human scalp HFs. In words: Organ culture of microdissected human HFs with CHS: OR2A4/7 expression and HF stem cell/progeny number by quantitative (immuno)histomorphometry. It is filed as cell-based. The note with it: 50 μM CHS vs vehicle, 6 days. The protocol:
Temporal and occipital human scalp skin was obtained from healthy donors (38-69 years old) undergoing routine face-lift surgery. Scalp skin samples were processed for HF microdissection (Edelkamp J, Gherardini J, Bertolini M, Methods to study human hair follicle growth ex vivo: human microdissected hair follicle and human full thickness skin organ culture, Methods Mol. Biol. 2154 (2020) 105-119).
Microdissected human scalp HFs were cultured at 37° C. with 5% CO2 in a minimal media of William's E media (WEM, Gibco, Life Technologies) supplemented with 2 mM of L-glutamine (Gibco), 10 ng/ml hydrocortisone (Sigma-Aldrich), 10 μg/ml insulin (Sigma-Aldrich), and 1% penicillin/streptomycin mix (Gibco) 25,26,62. After microdissection, the HFs were first incubated in WEM for 24 h for re-equilibration.
HFs after quality control (fully pigmented and presence in anagen VI phase) were randomly allocated to the different experimental groups.
After 24 h, WEM mediμm was replaced and HFs were treated with vehicle or 50 μM CHS for 6 days for (immuno) histomorphometry.
OCT-embedded samples were sectioned (6 μm thickness for HF and 7 μm thickness for skin) with a Leica cryostat. Sections obtained from the organ culture were stained using OR2A4/7 and integrin α-6 antibodies. A double-staining, […] wa salso performed. Sections without primary antibody were used as negative control. […]
Staining intensity was evaluated in well-defined reference areas by quantitative (immuno-) histomorphometry (Fischer T W, et al. Differential effects of caffeine on hair shaft elongation, matrix and outer root sheath keratinocyte proliferation, and transforming growth factor-B2/insulin-like growth factor-1-mediated regulation of the hair cycle in male and female human hair follicles in vitro. Br. J. Dermatol. 2014;171:1031-1043. doi: 10.1111/bjd.13114.; Samuelov L, et al. P-cadherin regulates human hair growth and cycling via canonical Wnt signaling and transforming growth factor-62. J. Invest. […]

The subject of assay [3] is OR2A4/7. In words: Intracellular Ca2+ signals in human melanocytes. Type of assay: cell-based.
Assay [4] relates to microdissected human scalp HFs. Put plainly: Organ culture of microdissected HFs with CHS: hair cycle staging and hair matrix keratinocyte proliferation (Ki-67/TUNEL, Masson Fontana). Particulars: 50 μM CHS vs vehicle, 6 days. Type of assay: cell-based. The text has this: Temporal and occipital human scalp skin was obtained from healthy donors (38-69 years old) undergoing routine face-lift surgery. Scalp skin samples were processed for HF microdissection (Edelkamp J, Gherardini J, Bertolini M, Methods to study human hair follicle growth ex vivo: human microdissected hair follicle and human full thickness skin organ culture, Methods Mol. Biol. 2154 (2020) 105-119). […]
OCT-embedded samples were sectioned (6 μm thickness for HF and 7 μm thickness for skin) with a Leica cryostat. […] Images were taken using a Keyence fluorescence microscope BZ9100 (Osaka, Japan) maintaining a constant set exposure time throughout imaging for further analysis.
HFs were microscopically evaluated for the hair cycle staging analysis using Masson-Fontana histochemistry and Ki-67/TUNEL immunostainings (Langan EA, et al. Human hair follicle organ culture: theory, application and perpsectives. Exp. Dermatol. 2015;24:903-911. doi: 10.1111/exd.12836; Kloepper JE, et al. Methods in hair research: how to objectively distinguish between anagen and catagen in human hair follicle organ culture. Exp. Dermatol. 2010;19:305-312. doi: 10.1111/j.1600-0625.2009.00939.x;). […]

SMILES strings stand for the structures. Entries after “also recorded” stand apart in the source; their conditions may differ.

In the case of `O=C(OC1CCCCC1)c1ccccc1O` [CHS, cyclohexyl salicylate], the “agonism at OR2A4/7” value with OR2A4/7 [1] was “specific agonist”. Also, in assay [2] (ex vivo HFs (FIG. 2)), the “OR2A4/7 protein expression in the HF bulb” value is “receptor downregulation”. In assay [2] (ex vivo HFs (FIG. 3a)), the “K15+ stem cells in the basal layer of the bulge” value is “did not seem to impact; also recorded: No differences”. In addition, the “CD34+ cells in the suprabulbar ORS” value in assay [2] (ex vivo HFs (FIG. 3b)) is “significantly increased”. Also, in the assay on OR2A4/7 [3], the “intracellular Ca2+ signals” value was “elicited transient intracellular Ca2+ signals”. Also, in assay [4] (ex vivo HFs (FIG. 4a)), the “HFs in anagen (hair cycle staging)” value was “prolongs anagen; also recorded: increase”. Besides, the “hair matrix keratinocyte proliferation (Ki-67)” value in assay [4] (ex vivo HFs (FIG. 4b)) is recorded as “induces hair matrix keratinocyte proliferation”.

The record behind these values is patent publication US20250170150A1, “OLFACTORY RECEPTOR 2A4/7 AGONIST FOR PROMOTING HAIR GROWTH AND IMPROVING AESTHETIC ASPECT” (GIULIANI S.P.A., priority 2022, published 2025).
